In ChEMBL document CHEMBL6096732 (J Med Chem, 2025):
The source made the active and inactive calls. The calls are words filed in the database; no cut-off is given here.

Tests used:
B16-F10 [1] = experiment: Inhibition of cell migration in mouse B16-F10 cells assessed as wound area at 20 uM incubated for 24 hrs by wound healing assay (reference value: 50.36 +/- 1.68 %); assay type: functional; parameters: scale not given: the % may be the effect or the level left
[2] = biological target: T1, Histone deacetylase 3 (Mus musculus) (UniProt O88895); experiment: In vivo inhibition of HDAC3 in male C57BL/6 mouse model implanted with mouse B16-F10 cells assessed as increase in acetylated histone H3 level in tumor at 50 mg/kg, po co-administered with NP-19 as once daily dosage via gavage for 14 days by DAPI staining based immunofluorescence analysis; assay type: functional, organism-based; details: time 14.0 day
T1 sequence (whole entry): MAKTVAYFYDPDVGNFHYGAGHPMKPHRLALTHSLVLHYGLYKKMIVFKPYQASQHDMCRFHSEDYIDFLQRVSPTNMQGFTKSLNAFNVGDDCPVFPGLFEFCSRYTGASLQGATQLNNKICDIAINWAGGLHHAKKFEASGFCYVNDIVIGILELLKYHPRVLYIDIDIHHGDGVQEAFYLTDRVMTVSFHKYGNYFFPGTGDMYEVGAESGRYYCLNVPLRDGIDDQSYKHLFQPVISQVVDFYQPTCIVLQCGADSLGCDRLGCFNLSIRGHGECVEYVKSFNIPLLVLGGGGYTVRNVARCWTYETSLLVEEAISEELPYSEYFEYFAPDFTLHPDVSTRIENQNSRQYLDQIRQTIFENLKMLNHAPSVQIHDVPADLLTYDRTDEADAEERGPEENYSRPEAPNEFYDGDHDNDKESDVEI

4T1 [3] = experiment: Antitumor activity against mouse 4T1 cells implanted in female BALB/c mouse model assessed as induction of DNA damage by measuring increase in gamma-H2AX expression in tumor co-administrated orally with olaparib as once daily dose via gavage for 14 days by Western blot analysis; assay type: functional, cell-based; details: route po, time 14.0 day
B16-F10 [4] = experiment: Induction of apoptosis in mouse B16-F10 cells assessed as increase in apoptotic cells at 20 uM incubated for 48 hrs by Annexin V-FITC/PI staining based flow cytometric analysis relative to control; assay type: functional
[5] = AUC (0 to infinity) in male Sprague-Dawley rat at 20 mg/kg, po measured after 12 hrs by LC-MS/MS analysis; assay type: ADME, organism-based; details: in vivo
4T1 [6] = experiment: Effect on acetylated alpha-tubulin expression level in mouse 4T1 cells at 5 to 20 uM incubated for 24 hrs by Western blot analysis; assay type: functional, cell-based; details: dose 5-20 µM
Histone deacetylase 7 = Histone deacetylase 7 (Homo sapiens, UniProt Q8WUI4); experiment: Inhibition of recombinant HDAC7 (unknown origin) using Boc-Lys(trifluoroacetyl)-AMC as substrate preincubated for 1 hr followed by substrate addition and measured after 2 hrs by fluorescence based micro plate reader analysis
Mus musculus = experiment: Immunomodulatory activity in male C57BL/6 mouse model implanted with mouse B16-F10 cells assessed as increase in CD3+ CD8+ T cells in tumor at 50 mg/kg, po administered once daily for 14 days by flow cytometric analysis (reference value: 3.2 %); assay type: functional; details: time 14 day
[7] = Apparent volume of distribution in male Sprague-Dawley rat at 20 mg/kg, po measured after 12 hrs by LC-MS/MS analysis; assay type: ADME, organism-based; details: in vivo
4T1 [8] = experiment: Antitumor activity against mouse 4T1 cells implanted in female BALB/c mouse model assessed as tumor growth inhibition co-administrated orally with olaparib as once daily dose via gavage for 14 days relative to control; assay type: functional; details: route po; time 14 day
Histone deacetylase 5 = Histone deacetylase 5 (Homo sapiens, UniProt Q9UQL6); experiment: Inhibition of recombinant HDAC5 (unknown origin) using Boc-Lys(trifluoroacetyl)-AMC as substrate preincubated for 1 hr followed by substrate addition and measured after 2 hrs by fluorescence based micro plate reader analysis
[9] = MRT (0 to infinity) in male Sprague-Dawley rat at 20 mg/kg, po measured after 12 hrs by LC-MS/MS analysis; assay type: ADME, organism-based; details: in vivo
4T1 [10] = experiment: Induction of DNA damage in mouse 4T1 cells assessed as upregulation of nuclear gamma-H2AX expression at 5 uM by DAPI staining based immunofluorescence analysis; assay type: functional, cell-based
4T1 [11] = experiment: Antitumor activity against mouse 4T1 cells implanted in female BALB/c mouse model assessed as induction of DNA damage by measuring increase in gamma-H2AX expression in tumor administrated orally as once daily dose via gavage for 14 days by DAPI staining based immunofluorescence analysis; assay type: functional, cell-based; details: route po, time 14.0 day
B16-F10 [12] = experiment: Induction of DNA damage in mouse B16-F10 cells assessed as increase in gamma-H2AX expression at 2 uM incubated for 24 hrs by Western blot analysis; assay type: functional, cell-based
[13] = biological target: Programmed cell death 1 ligand 1 (Mus musculus) (UniProt Q9EP73); experiment: Induction of PD-L1 degradation in mouse B16-F10 cells assessed as decrease in PD-L1 protein level at 5 uM incubated for 24 hrs by DAPI staining based immunofluorescence analysis; assay type: cell-based
4T1 [14] = experiment: Antitumor activity against mouse 4T1 cells implanted in female BALB/c mouse model assessed as induction of DNA damage by measuring increase in gamma-H2AX fluorescence intensity in tumor co-administrated orally with olaparib as once daily dose via gavage for 14 days by DAPI staining based immunofluorescence analysis; assay type: functional, cell-based; details: route po, time 14.0 day
[15] = VRT (0 to infinity) in male Sprague-Dawley rat at 20 mg/kg, po measured after 12 hrs by LC-MS/MS analysis; assay type: ADME, organism-based; details: in vivo
[16] = Ratio of AUC (0 to t) to AUC (0 to infinity) in male Sprague-Dawley rat at 2 mg/kg, iv measured after 12 hrs by LC-MS/MS analysis; assay type: ADME, organism-based; details: in vivo
B16-F10 [17] = experiment: Cell cycle arrest in mouse B16-F10 cells assessed as accumulation of cells in G1 phase incubated for 48 hrs by RNase A/PI staining based flow cytometric analysis; assay type: functional; details: dose 5-20 µM
SK-OV-3 = experiment: cells; assay type: functional, cell-based; details: Homo sapiens, SK-OV-3, 72 h
Description: Antiproliferative activity against human SK-OV-3 cells assessed as inhibition of cell growth incubated for 72 hrs by MTT assay

[18] = biological target: Polyamine deacetylase HDAC10 (Homo sapiens, UniProt Q969S8); experiment: Inhibition of recombinant HDAC10 (unknown origin) preincubated for 1 hr followed by substrate addition and measured after 2 hrs by fluorescence based micro plate reader analysis
Histone deacetylase 2 = Histone deacetylase 2 (Homo sapiens, UniProt Q92769); experiment: Inhibition of recombinant HDAC2 (unknown origin) using Boc-Lys(acetyl)-AMC as substrate preincubated for 1 hr followed by substrate addition and measured after 2 hrs by fluorescence based micro plate reader analysis
4T1 [19] = experiment: Antitumor activity against mouse 4T1 cells implanted in female BALB/c mouse model assessed as decrease in PAPR1 expression in tumor co-administrated orally with olaparib as once daily dose via gavage for 14 days by immunohistochemistry analysis; assay type: functional, cell-based; details: route po, time 14.0 day
4T1 [20] = experiment: Antitumor activity against mouse 4T1 cells implanted in female BALB/c mouse model assessed as decrease in PAPR1 expression in tumor administrated orally as once daily dose via gavage for 14 days by Western blot analysis; assay type: functional, cell-based; details: route po, time 14.0 day
B16-F10 [21] = experiment: Inhibition of cell migration in mouse B16-F10 cells assessed as wound area at 10 uM incubated for 24 hrs by wound healing assay (reference value: 50.36 +/- 1.68 %); assay type: functional; parameters: scale not given: the % may be the effect or the level left
[22] = Toxicity in female BALB/c mouse model implanted with mouse 4T1 cells assessed as effect on body weight administrated orally as once daily dose via gavage for 14 days; details: in vivo, po, 336 h, time 14 day

Polyamine deacetylase HDAC10, sequence (Q969S8 whole entry): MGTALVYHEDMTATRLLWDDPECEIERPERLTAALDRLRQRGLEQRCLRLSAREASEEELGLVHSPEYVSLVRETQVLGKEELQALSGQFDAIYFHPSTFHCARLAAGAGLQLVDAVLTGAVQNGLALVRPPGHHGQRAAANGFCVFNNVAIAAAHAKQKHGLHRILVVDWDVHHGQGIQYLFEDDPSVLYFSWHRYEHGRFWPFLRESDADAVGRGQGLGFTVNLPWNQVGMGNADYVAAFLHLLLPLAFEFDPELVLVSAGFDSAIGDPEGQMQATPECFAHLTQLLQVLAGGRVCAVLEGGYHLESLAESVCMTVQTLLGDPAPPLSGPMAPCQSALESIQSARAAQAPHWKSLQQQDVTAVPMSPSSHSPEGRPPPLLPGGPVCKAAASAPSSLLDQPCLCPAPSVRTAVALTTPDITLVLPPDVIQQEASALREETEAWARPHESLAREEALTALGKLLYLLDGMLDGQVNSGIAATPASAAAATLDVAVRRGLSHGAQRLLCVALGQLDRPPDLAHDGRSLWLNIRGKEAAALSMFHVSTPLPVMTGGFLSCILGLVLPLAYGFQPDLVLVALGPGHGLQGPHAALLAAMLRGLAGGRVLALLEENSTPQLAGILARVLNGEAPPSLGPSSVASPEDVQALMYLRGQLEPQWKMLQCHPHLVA
Programmed cell death 1 ligand 1 (Mus musculus), sequence (Q9EP73 whole entry): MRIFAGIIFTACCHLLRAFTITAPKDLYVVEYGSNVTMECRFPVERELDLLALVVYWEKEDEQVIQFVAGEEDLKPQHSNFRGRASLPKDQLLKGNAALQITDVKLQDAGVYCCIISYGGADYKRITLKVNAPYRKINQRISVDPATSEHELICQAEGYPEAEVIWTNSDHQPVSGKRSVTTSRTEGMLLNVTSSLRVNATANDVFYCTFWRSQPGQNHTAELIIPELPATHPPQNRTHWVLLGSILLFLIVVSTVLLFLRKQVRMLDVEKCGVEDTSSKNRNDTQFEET
Histone deacetylase 5, sequence (Q9UQL6 whole entry): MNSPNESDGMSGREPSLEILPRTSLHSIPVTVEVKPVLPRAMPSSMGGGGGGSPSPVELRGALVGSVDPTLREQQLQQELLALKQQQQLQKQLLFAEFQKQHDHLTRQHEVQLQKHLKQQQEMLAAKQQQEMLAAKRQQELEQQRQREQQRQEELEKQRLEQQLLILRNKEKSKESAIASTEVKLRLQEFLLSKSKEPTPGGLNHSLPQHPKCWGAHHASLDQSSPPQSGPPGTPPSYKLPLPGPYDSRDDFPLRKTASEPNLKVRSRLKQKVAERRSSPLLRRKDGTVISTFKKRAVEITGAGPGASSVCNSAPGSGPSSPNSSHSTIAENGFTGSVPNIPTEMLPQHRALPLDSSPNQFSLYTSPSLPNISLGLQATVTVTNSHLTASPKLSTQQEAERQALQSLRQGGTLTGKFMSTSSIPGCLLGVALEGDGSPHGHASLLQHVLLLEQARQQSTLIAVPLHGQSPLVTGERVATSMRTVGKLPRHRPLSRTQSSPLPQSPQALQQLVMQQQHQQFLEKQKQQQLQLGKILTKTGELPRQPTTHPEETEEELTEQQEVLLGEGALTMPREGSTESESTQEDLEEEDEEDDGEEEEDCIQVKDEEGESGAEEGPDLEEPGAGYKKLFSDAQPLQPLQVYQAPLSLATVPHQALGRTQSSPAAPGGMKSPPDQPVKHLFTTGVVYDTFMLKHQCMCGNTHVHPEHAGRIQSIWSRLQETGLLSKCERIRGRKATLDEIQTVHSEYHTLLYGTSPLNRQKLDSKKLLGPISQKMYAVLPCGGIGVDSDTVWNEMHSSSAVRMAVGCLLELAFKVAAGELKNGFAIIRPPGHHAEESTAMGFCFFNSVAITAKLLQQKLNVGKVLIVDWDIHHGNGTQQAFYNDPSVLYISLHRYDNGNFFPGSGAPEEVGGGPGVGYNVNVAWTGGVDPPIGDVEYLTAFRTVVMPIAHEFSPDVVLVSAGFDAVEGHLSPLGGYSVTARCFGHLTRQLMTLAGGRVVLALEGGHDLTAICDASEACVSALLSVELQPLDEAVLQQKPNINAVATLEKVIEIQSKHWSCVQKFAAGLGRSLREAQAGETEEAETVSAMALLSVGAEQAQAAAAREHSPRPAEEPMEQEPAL
Histone deacetylase 7, sequence (Q8WUI4 whole entry): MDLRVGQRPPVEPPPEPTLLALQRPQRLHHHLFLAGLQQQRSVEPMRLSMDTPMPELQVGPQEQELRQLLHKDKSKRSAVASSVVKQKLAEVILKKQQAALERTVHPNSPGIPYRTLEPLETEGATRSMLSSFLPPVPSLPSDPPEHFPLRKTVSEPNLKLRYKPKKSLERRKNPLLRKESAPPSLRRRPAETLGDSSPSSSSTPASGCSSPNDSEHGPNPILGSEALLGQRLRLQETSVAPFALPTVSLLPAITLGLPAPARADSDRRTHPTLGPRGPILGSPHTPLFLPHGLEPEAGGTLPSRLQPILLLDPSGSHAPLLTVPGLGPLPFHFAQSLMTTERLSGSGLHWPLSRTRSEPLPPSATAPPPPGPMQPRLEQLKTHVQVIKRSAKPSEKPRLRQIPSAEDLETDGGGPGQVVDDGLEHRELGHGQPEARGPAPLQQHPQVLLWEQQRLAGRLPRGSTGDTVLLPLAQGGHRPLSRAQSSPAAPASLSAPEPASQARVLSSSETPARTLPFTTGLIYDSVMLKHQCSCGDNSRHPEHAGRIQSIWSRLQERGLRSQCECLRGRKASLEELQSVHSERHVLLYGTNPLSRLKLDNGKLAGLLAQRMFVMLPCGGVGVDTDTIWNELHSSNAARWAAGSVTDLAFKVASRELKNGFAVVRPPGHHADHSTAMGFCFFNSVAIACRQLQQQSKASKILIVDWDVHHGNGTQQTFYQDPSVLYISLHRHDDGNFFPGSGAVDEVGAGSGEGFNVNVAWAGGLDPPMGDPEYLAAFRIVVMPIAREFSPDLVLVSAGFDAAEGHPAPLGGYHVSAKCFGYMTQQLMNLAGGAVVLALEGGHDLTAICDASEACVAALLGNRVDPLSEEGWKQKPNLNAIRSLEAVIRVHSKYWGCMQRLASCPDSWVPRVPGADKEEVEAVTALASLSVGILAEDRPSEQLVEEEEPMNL
Histone deacetylase 2, sequence (Q92769 whole entry): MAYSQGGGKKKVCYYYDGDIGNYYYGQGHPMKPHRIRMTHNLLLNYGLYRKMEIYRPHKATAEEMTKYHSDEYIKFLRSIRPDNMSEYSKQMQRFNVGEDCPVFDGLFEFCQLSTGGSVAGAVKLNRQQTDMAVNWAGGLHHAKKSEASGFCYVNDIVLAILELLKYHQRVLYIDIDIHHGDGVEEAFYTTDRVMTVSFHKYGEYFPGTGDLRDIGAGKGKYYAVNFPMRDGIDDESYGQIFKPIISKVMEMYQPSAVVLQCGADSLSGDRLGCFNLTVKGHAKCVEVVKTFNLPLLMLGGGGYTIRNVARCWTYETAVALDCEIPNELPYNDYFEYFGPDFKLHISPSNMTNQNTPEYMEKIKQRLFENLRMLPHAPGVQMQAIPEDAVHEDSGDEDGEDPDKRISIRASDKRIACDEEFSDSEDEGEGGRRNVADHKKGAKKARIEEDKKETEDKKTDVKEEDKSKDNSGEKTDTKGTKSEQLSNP

With `CCCNNC(=O)c1ccc(Cn2c3ccccc3c3c(-c4ccccn4)nc4ccccc4c32)cc1` the Activity (B16-F10 [1]) was 5.9%, the inhibition [2] was “Active” and the Activity (4T1 [3]) was “Active”. For the same molecule, the Activity (B16-F10 [4]) was 60.7%, the AUC(0-inf) [5] was 8170 ng·h/mL and the Activity (4T1 [6]) was “inactive”. For the same molecule, the IC50 (Histone deacetylase 7) was greater than 10 µM, the Activity (Mus musculus) was 25% and the Vz [7] was 7.322 L/kg. For the same molecule, the TGI (4T1 [8]) was 91%, the IC50 (Histone deacetylase 5) was greater than 10 µM and the MRT inf [9] was 4.9 h. The Activity (4T1 [10]) was “Active”, the Activity (4T1 [11]) was “Active; Comparable To The Effect Of Olaparib” and the Activity (B16-F10 [12]) was “Active”. The Activity [13] was “Active”, the Activity (4T1 [14]) was “Active” and the VRT [15] was 12.987 hr2. For the same molecule, the “Ratio AUC” value [16] was 99.95%, the Activity (B16-F10 [17]) was “Dose-dependent-effect” and the IC50 (SK-OV-3) was 12.8 µM. For the same molecule, the IC50 [18] was greater than 10 µM, the IC50 (Histone deacetylase 2) was 9.77 µM and the Activity (4T1 [19]) was “Active”. The Activity (4T1 [20]) was “Active”, the Activity (B16-F10 [21]) was 10.25% and the Activity [22] was “Non-toxic”.
